The first data set deals with T1, truncated form of PTP1 B (corresponding to the first 321 amino acids) (Homo sapiens, UniProt P18031).
T1 construct: truncated form of PTP1 B (corresponding to the first 321 amino acids); made in house; host or cells: E. coli
T1 sequence (P18031 1-321): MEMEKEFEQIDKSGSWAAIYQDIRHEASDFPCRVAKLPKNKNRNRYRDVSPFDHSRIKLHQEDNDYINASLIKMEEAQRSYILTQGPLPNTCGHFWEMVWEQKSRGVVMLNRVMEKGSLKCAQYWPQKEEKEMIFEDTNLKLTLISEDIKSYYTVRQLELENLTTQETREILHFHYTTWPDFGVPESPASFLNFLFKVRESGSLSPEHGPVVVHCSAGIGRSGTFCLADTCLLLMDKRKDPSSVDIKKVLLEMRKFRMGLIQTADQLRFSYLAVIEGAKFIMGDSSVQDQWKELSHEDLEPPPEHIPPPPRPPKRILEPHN
The data set can be described thus: Inhibition of PTP1B (p-nitrophenyl phosphate substrate, enzyme kinetic analysis). It is filed as biochemical. Particulars: truncated PTP1B expressed in E. coli; substrate p-nitrophenyl phosphate 0.16 to 10 mM; 50 mM HEPES pH 7.0; 60 minutes; read-out: PTP1B K1 values. As for the experimental part:
The compounds are evaluated for biological activity with a truncated form of PTP1 B (corresponding to the first 321 amino acids), which was expressed in E. coli and purified to apparent homogeneity using published procedures well-known to those skilled in the art. The enzyme reactions are carried out using standard conditions essentially as described by Burke et al. (Biochemistry 35; 15989–15996 (1996)). The assay conditions are as follows. Appropriate concentrations of the compounds of the invention are added to the reaction mixtures containing different concentrations of the substrate, p-nitrophenyl phosphate (range: 0.16 to 10 mM—final assay concentration). The buffer used was 50 mM HEPES pH 7.0, 100 mM sodium chloride, 0.1% (w/v) bovine serum albumin, 5 mM glutathione, and 1 mM EDTA.). The reaction was started by addition of the enzyme and carried out in microtiter plates at […] for 60 minutes. The reactions are stopped by addition of NaOH. The enzyme activity was determined by measurement of the absorbance at 405 nm with appropriate corrections for absorbance at 405 nm of the compounds and p-nitrophenyl phosphate. The data are analyzed using nonlinear regression fit to classical Michaelis Menten enzyme kinetic models. Inhibition is expressed as Ki values in μM.
Regarding `O=C(O)C(=O)Nc1sc2c(c1C(=O)O)CC(CN1C(=O)c3cccc(O)c3C1=O)OC2` (centres unmarked) [Example 4, 5-(4-Hydroxy-1,3-dioxo-1,3-dihydro-isoindol-2-ylmethyl)-2-(oxalyl-amino)-4,7-dihydro-5-H-thieno[2,3-c]pyran-3-carboxylic acid], the Ki amounted to 1.5 µM. On the same count and under the same terms, then `O=C(O)C(=O)Nc1sc2c(c1C(=O)O)CCOC2CN1C(=O)CSC1=O` (centres unmarked) [Example 23, 7-(2,4-Dioxo-Thiazolidin-3-ylmethyl)-2-(oxalyl-amino)-4,7-dihydro-5H-thieno[2,3-c]pyran-3-carboxylic acid], with 9.7 µM; and `O=C(O)C(=O)Nc1sc2c(c1C(=O)O)CCOC2CN1C(=O)c2cccc(O)c2C1=O` (centres unmarked) [Example 25, 7-(4-Hydroxy-1,3-dioxo-1,3-dihydro-isoindol-2-ylmethyl)-2-(oxalyl-amino)-4,7-dihydro-5H-thieno[2,3-c]pyran-3-carboxylic acid], with 7 µM; and `COc1ccc2c(c1)C(=O)N(CC1OCCc3c1sc(NC(=O)C(=O)O)c3C(=O)O)C2=O` (centres unmarked) [Example 26, 5-(5-Methoxy-1,3-dioxo-1,3-dihydro-isoindol-2-ylmethyl)-2-(oxalyl-amino)-4,7-dihydro-5H-thieno[2,3-c]pyran-3-carboxylic acid], with 1.2 µM. Same read-out and setting: the value for `O=C(O)C(=O)Nc1sc2c(c1C(=O)O)CCOC2CN1C(=O)c2cc3c(cc2C1=O)OCO3` (centres unmarked) [Example 27] was 3.6 µM; that for `O=C(O)C(=O)Nc1sc2c(c1C(=O)O)CCOC2CNC(=O)c1ccc2c(c1)OCO2` (centres unmarked) [Example 28, 7-(((Benzo[1,3]dioxole-5-carbonyl)amino)methyl)-2-(oxalyl-amino)-4,7-dihydro-5H-thieno[2,3-c]pyran-3-carboxylic acid] was 8.2 µM; that for `CC(=O)Nc1ccc(/C=C2\SC(=O)N(CC3OCCc4c3sc(NC(=O)C(=O)O)c4C(=O)O)C2=O)cc1` (centres unmarked) [Example 39, 7-(5-(4-Acetylamino-benzylidene)-2,4-dioxo-thiazolidin-3-ylmethyl)-2-(oxalyl-amino)-4,7-dihydro-5H-thieno[2,3-c]pyran-3-carboxylic acid] was 7.5 µM. Still for that read-out and setting: the value for `O=C(O)C(=O)Nc1sc2c(c1C(=O)O)CCOC2CN1C(=O)S/C(=C\c2c[nH]cn2)C1=O` (centres unmarked) [Example 41, 7-(5-(1H-imidazol-4(5)-ylmethylene)-2,4-dioxo-thiazolidin-3-ylmethyl)-2-(oxalyl-amino)-4,7-dihydro-5H-thieno[2,3-c]pyran-3-carboxylic acid] was 1.5 µM; that for `O=C(O)C(=O)Nc1sc2c(c1C(=O)O)CCOC2CN1C(=O)c2ccccc2S1(=O)=O` (centres unmarked) [Example 46, 2-(Oxalyl-amino)-7-(1,1,3-trioxo-1,3-dihydro-1H-benzo[d]isothiazol-2-ylmethyl)-4,7-dihydro-5H-thieno[2,3-c]pyran-3-carboxylic acid] was 2.3 µM; that for `O=C(O)C(=O)Nc1sc2c(c1C(=O)O)CCOC2COC1=NS(=O)(=O)c2ccccc21` (centres unmarked) [Example 47] was 0.8 µM. `O=C(O)C(=O)Nc1sc2c(c1C(=O)O)CCOC2CN1C(=O)C=C(c2ccccc2)S1(=O)=O` (centres unmarked) [Example 49, 2-(Oxalyl-amino)-7-(1,1,3-trioxo-5-phenyl-1,3-dihydro-isothiazol-2-ylmethyl)-4,7-dihydro-5H-thieno[2,3-c]pyran-3-carboxylic acid]: the Ki was found to be 1.4 µM. On the same count and under the same terms, the value for `O=C(O)C(=O)Nc1sc2c(c1C(=O)O)CCOC2COC1=NS(=O)(=O)C(c2ccccc2)=C1` (centres unmarked) [Example 50, 7-(1,1-Dioxo-5-phenyl-1H-isothiazol-3-yloxymethyl)-2-(oxalyl-amino)-4,7-dihydro-5H-thieno[2,3-c]pyran-3-carboxylic acid] was 3 µM; that for `O=C(O)C(=O)Nc1sc2c(c1C(=O)O)CCOC2Cn1c(=O)c2ccccc2[s+]1[O-]` (centres unmarked) [Example 55, 7-(1,3-Dioxo-1,3-dihydro-benzo[d]isothiazol-2-ylmethyl)-2-(oxalyl-amino)-4,7-dihydro-5H-thieno[2,3-c]pyran-3-carboxylic acid] was 1.3 µM.

Test system in a further data set: not given
Test: not given
Conditions: not given
As a reminder, the melting point is the temperature, or range, at which the solid turns liquid. Compound `O=C(O)C(=O)Nc1sc2c(c1C(=O)O)CCOC2CN1C(=O)S/C(=C\c2c[nH]cn2)C1=O` (centres unmarked) [Example 41, 7-(5-(1H-imidazol-4(5)-ylmethylene)-2,4-dioxo-thiazolidin-3-ylmethyl)-2-(oxalyl-amino)-4,7-dihydro-5H-thieno[2,3-c]pyran-3-carboxylic acid] yielded a melting point of more than 250 °C.

The values are drawn from patent US7019026B1, “Modulators of Protein Tyrosine Phosphatases (PTPases)” (Novo Nordisk A/S, priority 1999, dated 2006).
